Experimental data published in patent publication US9315475B2 (MERCK SHARP & DOHME CORP., priority 2011, dated 2016).
pEC50, pIC50: −log10 of the molar value. Counter-ions that a name gives are not always drawn.

Key:
wildtype HIV-1 protease = target: T1, wildtype HIV-1 protease (Human immunodeficiency virus type 1 group M subtype B, UniProt P04585); assay: Assay for inhibition of microbial expressed HIV protease (Pepcleav); assay type: biochemical; conditions: wild type HIV-1 protease expressed in E. coli, peptide substrate, pH 5.5; mean of at least two independent experiments; read-out: Pepcleav
T1 construct: the wildtype HIV-1 protease (which was expressed in Escherichia coli); made in house; host or cells: Escherichia coli
How it was run: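 E. coli-expressed wild-type HIV-1 protease (20 pM) preincubated 30 min at room temperature with inhibitor in pH 5.5 sodium acetate/NaCl/BSA buffer, then 400 μM Val-Ser-Gln-Asn-(βnaphthyl)Ala-Pro-Ile-Val added for 1 h at 30 °C. Quenched with formic acid; product quantified by LC-MS/MS peak area, indinavir internal standard.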

HIV-1 (H9IIIB strain) = assay: Antiviral acute infection assay in cell culture (Spread); assay type: cell-based; conditions: Human immunodeficiency virus 1, T-lymphoid, HIV-1 H9IIIB infection of MT-4 human T-lymphoid cells in 10% FBS; mean of at least two independent experiments
Excerpt: Antiviral Assays in Cell Culture (“Spread”)
Acute Infection Assay (“Spread”) data were generated using HIV-1 (H9IIIB strain) infection of MT-4 human T-lymphoid cells in 10% FBS, and according to the methods disclosed by J. P. Vacca et al, “L-735,524: An orally bioavailable human immunodeficiency virus type 1 protease inhibitor,” Proc. Natl. Acad. Sci. USA, Vol. 91, pp. 4096-4100 (April 1994).

Structure (SMILES)	pIC50 (wildtype HIV-1 protease)	pEC50 (HIV-1 (H9IIIB strain))
CN[C@H](C(=O)Nc1cncc(F)c1CC[C@@H]1CN[C@H](COC(=O)NCC(F)(F)F)CO1)C(c1ccc(F)cc1)c1ccc(F)cc1 [Example 202, 4-fluoro-β-(4-fluorophenyl)-N-(5-fluoro-4-{2-[(2R,5S)-5-({[(2,2,2-trifluoroethyl)carbamoyl]oxy}methyl)morpholin-2-yl]ethyl}pyridin-3-yl)-Nα-methyl-L-phenylalaninamide]	7.55	7.19
N[C@H](C(=O)Nc1cncc(F)c1CC[C@@H]1CN[C@H](COC(=O)NC(CC(F)(F)F)c2ccc(F)cc2)CO1)C(c1ccc(F)cc1)c1ccc(F)cc1 (stereo partly drawn) [Example 276, 4-fluoro-β-(4-fluorophenyl)-N-[5-fluoro-4-(2-{(2R,5S)-5-[({[3,3,3-trifluoro-1-(4-fluorophenyl)propyl]carbamoyl}oxy)methyl]morpholin-2-yl}ethyl)pyridin-3-yl]-L-phenylalaninamide]	9.70	7.55
N[C@H](C(=O)Nc1cncc(F)c1CC[C@@H]1CN[C@H](COC(=O)NCC(F)(F)F)CO1)[C@H](c1ccc(F)cc1)c1ccc(Br)cc1 [Example 275, (βR)-4-bromo-β-(4-fluorophenyl)-N-(5-fluoro-4-{2-[(2R,5S)-5-({[(2,2,2-trifluoroethyl)carbamoyl]oxy}methyl)morpholin-2-yl]ethyl}pyridin-3-yl)-L-phenylalaninamide]	9.40	7.60
N[C@H](C(=O)Nc1cncc(F)c1CC[C@@H]1CN[C@H](COC(=O)NCC(F)(F)F)CO1)C(c1ccc(F)cc1)c1ccc(F)cc1 [Example 79, 4-Fluoro-β-(4-fluorophenyl)-N-(5-fluoro-4-{2-[(2R,5S)-5-({[(2,2,2-trifluoroethyl)carbamoyl]oxy}methyl)morpholin-2-yl]ethyl}pyridin-3-yl)-L-phenylalaninamide trihydrochloride]	8.44	7.43
N[C@H](C(=O)Nc1cncc(F)c1CC[C@@H]1CN[C@H](COC(=O)NCc2nc3ccncc3[nH]2)CO1)C(c1ccc(F)cc1)c1ccc(F)cc1 [Example 242, 4-fluoro-N-(5-fluoro-4-{2-[(2R,5S)-5-({[(3H-imidazo[4,5-c]pyridin-2-ylmethyl)carbamoyl]oxy}methyl)morpholin-2-yl]ethyl}pyridin-3-yl)-β-(4-fluorophenyl)-L-phenylalaninamide]	7.60	6.22
COC(=O)N[C@H](C(=O)Nc1cncc(F)c1CC[C@@H]1CN[C@H](COC(=O)NCC(F)(F)F)CO1)[C@H](c1ccc(F)cc1)c1ccc(F)c(F)c1 [Example 297, (βR)-3,4-difluoro-β-(4-fluorophenyl)-N-(5-fluoro-4-{2-[(2R,5S)-5-({[(2,2,2-trifluoroethyl)carbamoyl]oxy}methyl)morpholin-2-yl]ethyl}pyridin-3-yl)-Nα-(methoxycarbonyl)-L-phenylalaninamide]	9.00	7.82
O=C(NCC(F)(F)F)OC[C@@H]1CO[C@H](CCc2c(F)cncc2NC(=O)[C@@H](NC(=O)OC2CCCC2)C(c2ccc(F)cc2)c2ccc(F)cc2)CN1 [Example 278, Nα-[(cyclopentyloxy)carbonyl]-4-fluoro-β-(4-fluorophenyl)-N-(5-fluoro-4-{2-[(2R,5S)-5-({[(2,2,2-trifluoroethyl)carbamoyl]oxy}methyl)morpholin-2-yl]ethyl}pyridin-3-yl)-L-phenylalaninamide]	8.49	7.42
N[C@H](C(=O)Nc1cncc(F)c1CC[C@@H]1CN[C@H](COC(=O)NC2(c3ccccn3)CC2)CO1)C(c1ccc(F)cc1)c1ccc(F)cc1 [Example 214, 4-fluoro-β-(4-fluorophenyl)-N-(5-fluoro-4-{2-[(2R,5S)-5-({[(1-pyridin-2-ylcyclopropyl)carbamoyl]oxy}methyl)morpholin-2-yl]ethyl}pyridin-3-yl)-L-phenylalaninamide]	8.28	7.24
CC1(CNC(=O)OC[C@@H]2CO[C@H](CCc3c(F)cncc3NC(=O)CC(c3ccc(F)cc3)c3ccc(F)cc3)CN2)CCCO1 (stereo partly drawn) [Example 166, {(3S,6R)-6-[2-(3-{[3,3-bis(4-fluoro-phenyl)propanoyl]amino}-5-fluoropyridin-4-yl)ethyl]morpholin-3-yl]methyl [(2-methyltetrahydrofuran-2-yl)methyl]carbamate]	7.85	7.43
N[C@H](C(=O)Nc1cccc(F)c1OC[C@@H]1CN[C@H](COC(=O)NCC(F)(F)F)CO1)C(c1ccc(F)cc1)c1ccc(F)cc1 [Example 82, ((3S,6S)-6-((2-((S)-2-amino-3,3-bis(4-fluorophenyl)propanamido)-6-fluorophenoxy)methyl)morpholin-3-yl)methyl (2,2,2-trifluoroethyl)carbamate]	7.96	7.40
N[C@H](C(=O)Nc1cncc(F)c1CC[C@@H]1CN[C@H](COC(=O)NCC(F)(F)F)CO1)[C@H](c1ccc(F)cc1)c1ccc(OC(F)(F)F)cc1 [Example 246, (βS)-β-(4-fluorophenyl)-N-(5-fluoro-4-{2-[(2R,5S)-5-({[(2,2,2-trifluoroethyl)carbamoyl]oxy}methyl)morpholin-2-yl]ethyl}pyridin-3-yl)-O-(trifluoromethyl)-L-tyrosinamide]	7.89	6.41
COC(=O)N[C@H](C(=O)Nc1cncc(F)c1CC[C@@H]1CN[C@H](COC(=O)NCC(F)(F)F)CO1)[C@@H](c1ccc(F)cc1)c1cc(F)ccc1F [Example 300, (βS)-2,5-difluoro-β-(4-fluorophenyl)-N-(5-fluoro-4-{2-[(2R,5S)-5-({[(2,2,2-trifluoroethyl)carbamoyl]oxy}methyl)morpholin-2-yl]ethyl}pyridin-3-yl)-Nα-(methoxycarbonyl)-L-phenylalaninamide]	8.80	7.74
COC(=O)N[C@H](C(=O)Nc1cccc(F)c1CC[C@@H]1CN[C@H](COC(=O)NCC(F)(F)F)CO1)[C@@H](c1ccc(F)cc1)c1cccc(F)c1 [Example 287]	8.22	7.77
N[C@H](C(=O)Nc1cccc(F)c1CC[C@@H]1CN[C@H](COC(=O)NCC(F)(F)F)CO1)[C@@H](c1ccc(F)cc1)c1cc(F)cc(F)c1 [Example 251, (βS)-3,5-difluoro-β-(4-fluorophenyl)-N-(3-fluoro-2-{2-[(2R,5S)-5-({[(2,2,2-trifluoroethyl)carbamoyl]oxy}methyl)morpholin-2-yl]ethyl}phenyl)-L-phenylalaninamide]	8.09	7.49
CS(=O)(=O)c1cccc([C@@H](CC(=O)Nc2cccc(F)c2CC[C@@H]2CN[C@H](COC(=O)NCC(F)(F)F)CO2)c2ccc(Cl)cc2)c1 [Example 164, [(3S,6R)-6-{2-[2-({(3S)-3-(4-chlorophenyl)-3-[3-(methylsulfonyl)phenyl]propanoyl}amino)-6-fluorophenyl]ethyl}morpholin-3-yl] methyl (2,2,2-trifluoroethyl)carbamate]	8.47	7.20
CC(C)COC(=O)N[C@H](C(=O)Nc1cncc(F)c1CC[C@@H]1CN[C@H](COC(=O)NCC(F)(F)F)CO1)C(c1ccc(F)cc1)c1ccc(F)cc1 [Example 140, 4-Fluoro-β-(4-fluorophenyl)-N-(5-fluoro-4-{2-[(2R,5S)-5-({[(2,2,2-trifluoroethyl)carbamoyl]oxy}methyl)morpholin-2-yl]ethyl}pyridin-3-yl)-Nα-[(2-methylpropoxy)carbonyl]-L-phenylalaninamide]	8.68	7.68
N[C@H](C(=O)Nc1cncc(F)c1CC[C@@H]1CN[C@H](COC(=O)NCC2CCOCC2)CO1)C(c1ccc(F)cc1)c1ccc(F)cc1 [Example 208, 4-fluoro-β-(4-fluorophenyl)-N-(5-fluoro-4-{2-[(2R,5S)-5-({[(tetrahydro-2H-pyran-4-ylmethyl)carbamoyl]oxy}methyl)morpholin-2-yl]ethyl}pyridin-3-yl)-L-phenylalaninamide]	7.74	7.00
N[C@H](C(=O)Nc1cncc(F)c1CC[C@@H]1CN[C@H](COC(=O)NC[C@H]2CCC(=O)N2)CO1)C(c1ccc(F)cc1)c1ccc(F)cc1 [Example 254, 4-fluoro-N-(5-fluoro-4-{2-[(2R,5S)-5-{[({[(2R)-5-oxopyrrolidin-2-yl]methyl}carbamoyl)oxy]methyl}morpholin-2-yl]ethyl}pyridin-3-yl)-β-(4-fluorophenyl)-L-phenylalaninamide]	8.12	5.96
N[C@H](C(=O)Nc1cncc(F)c1CC[C@@H]1CN[C@H](COC(=O)NCC(F)(F)F)CO1)[C@@H](c1ccc(F)cc1)c1cccc(C(F)(F)F)c1 [Example 272, (βS)-4-fluoro-N-(5-fluoro-4-{2-[(2R,5S)-5-({[(2,2,2-trifluoroethyl)carbamoyl]oxy}methyl)morpholin-2-yl]ethyl}pyridin-3-yl)-β-[3-(trifluoromethyl)phenyl]-L-phenylalaninamide]	8.70	7.49
COC(=O)N[C@H](C(=O)Nc1cccc(F)c1CC[C@@H]1CN[C@H](COC(=O)NCC(F)(F)F)CO1)[C@@H](c1ccc(F)cc1)c1cccc(OC(F)(F)F)c1 [Example 303, (βS)-4-fluoro-N-(3-fluoro-2-{2-[(2R, 5S)-5-({[(2,2,2-trifluoroethyl)carbamoyl]oxy}methyl)morpholin-2-yl]ethyl}phenyl)-Nα-(methoxy-carbonyl)-β-[3-(trifluoromethoxy)phenyl]-L-phenylalaninamide]	8.28	7.62
